Test results published in patent US20240261302A1, “METHODS OF TREATING NEURODEGENERATIVE DISEASES OR CONDITIONS” (FloraScience Inc., priority 2023, published 2024).

Legend:
HT22 cells [1] = test: Ferroptosis Assay (RSL3-induced cell death, MTT); format: cell-based, mouse; conditions: Mus musculus, HT-22; HT22 cells, 1 hr pretreatment, 50 nM RSL3, 16 hr, MTT; read-out: Observed EC50 RSL3
Procedure: Ferroptosis Assay: HT22 cells were seeded at 3,000 cells/well in 96-well tissue culture plates in DMEM plus 10% FBS and 1% antibiotics. After 24 hr of plating, the cells were pretreated with different concentrations of test compounds or a vehicle control for 1 hr followed by coincubation with 50 nM RSL3 to induce the cell death cascade. After 16 hr of treatment, cell viability was measured by the MTT assay. Optical absorbance was measured at 570 nm on a SpectraMax M5 microplate reader. Samples were analyzed in eight to sixteen wells per independent experiment (n=8-16). Results were presented as the percentage of the controls with vehicle alone.

HT22 cells [2] = test: Oxytosis/ferroptosis assay with erastin (Table 2); format: cell-based; conditions: Mus musculus, HT-22; erastin as inducer; method not given; read-out: Observed EC50 erastin

SMILES | EC50 (HT22 cells [1]) | EC50 (HT22 cells [2])
CCCCCc1cc(O)c(-c2cccc(C)c2)c(O)c1 [4-DI-CBND, 3′-methyl-4-pentyl-[1,1′-biphenyl]-2,6-diol] | 4.2 µM | 9.6 µM
CCCCCc1cc(O)c2c(c1)OC(C)(C)c1ccc(CO)cc1-2 [11-OH-CBN, 9-(hydroxymethyl)-6,6-dimethyl-3-pentyl-6H-benzo[c]chromen-1-ol] | 1.3 µM | 4.7 µM
C=C(C)[C@@H]1CCC(C)=C[C@H]1c1c(O)cc(O)cc1CCCCC [Abn-CBD, 4-[(1R,6R)-3-methyl-6-(1-methylethenyl)-2-cyclohexen-1-yl]-5-pentyl-1,3-benzenediol] | 3.9 µM | 8 µM
CCCc1cc(O)cc2c1-c1cc(C)ccc1C(C)(C)O2 [Abn-CBNV, 6,6,9-trimethyl-1-propyl-6H-benzo[c]chromen-3-ol] | 4.9 µM | 9.5 µM
CCCCCc1cc(O)c2c(c1)OC(C)(CCC=C(C)C)C=C2 (centres unmarked) [CBC, 2-Methyl-2-(4-methylpent-3-enyl)-7-pentyl-5-chromenol] | 1.1 µM | 8.7 µM
C=C(C)[C@@H]1CCC(C)=C[C@H]1c1c(O)cc(CCCCC)cc1O [CBD, 2-[(1R,6R)-6-Isopropenyl-3-methylcyclohex-2-en-1-yl]-5-pentylbenzene-1,3-diol] | 0.86 µM | 8.8 µM
C=C(C)C1CCC(C)=CC1c1c(OC(C)=O)cc(CCCCC)cc1OC(C)=O (centres unmarked) [CBD-(OAc)2, 5′-methyl-4-pentyl-2′-(prop-1-en-2-yl)-1′,2′,3′,4′-tetrahydro-[1,1′-biphenyl]-2,6-diyl diacetate] | 2.4 µM | 9.1 µM
C=C(C)[C@@H]1CCC(C)=C[C@H]1c1c(O)cc(CCCCC)c(C(=O)O)c1O [CBDA, (1′R,2′R)-2,6-Dihydroxy-5′-methyl-4-pentyl-2′-(prop-1-en-2-yl)-1′,2′,3′,4′-tetrahydro[1,1′-biphenyl]-3-carboxylic acid] | 9.3 µM | > 10 µM
C=C(C)[C@@H]1CCC(C)=C[C@H]1c1c(O)cc(CCC)cc1O [CBDV, 2-[(1R,6R)-6-Isopropenyl-3-methylcyclohex-2-en-1-yl]-5-propylbenzene-1,3-diol] | 1 µM | 3.8 µM
C=C(C)[C@@H]1CC[C@](C)(O)[C@H]2Oc3cc(CCCCC)cc(O)c3[C@@H]12 [CBE, (5aS,6S,9R,9aR)-6-methyl-3-pentyl-9-prop-1-en-2-yl-7,8,9,9a-tetrahydro-5aH-dibenzofuran-1,6-diol] | > 10 µM | > 10 µM
CCCCCc1cc(O)c2c(c1)oc1c(C)ccc(C(C)C)c12 [CBF, 5-isopropyl-8-methyl-2-pentyl-9-oxa-4-fluorenol] | 0.15 µM | 0.31 µM
CCCCCc1cc(O)c(C/C=C(\C)CCC=C(C)C)c(O)c1 [CBG, 2-[(2E)-3,7-Dimethylocta-2,6-dienyl]-5-pentyl-benzene-1,3-diol] | 3.2 µM | 10.8 µM
CCCCCc1cc(O)c(C/C=C(\C)CCC=C(C)C)c(O)c1C(=O)O [CBGA, 3-[(2E)-3,7-Dimethylocta-2,6-dien-1-yl]-2,4-dihydroxy-6-pentylbenzoic acid] | > 10 µM | > 10 µM
CCCCCc1cc(O)c2c(c1)OC1(C)CCC3C1C2C3(C)C (stereo not drawn) [CBL, (1aR-(1a alpha,3a alpha,8b alpha,8calpha))-1a,2,3,3a,8b,8c-hexahydro-1,1,3a-trimethyl-6-pentyl-1H-4-oxabenzo(f)-cyclobut(cd)inden-8-ol] | 0.77 µM | 3.3 µM
Cc1cc(O)c2c(c1)OC(C)(C)c1ccc(C)cc1-2 [CBN-C1, 3-methyl-6,6,9-trimethyl-6H-benzo[c]chromen-1-ol] | 2.2 µM | 6.9 µM
CCc1cc(O)c2c(c1)OC(C)(C)c1ccc(C)cc1-2 [CBN-C2, 3-ethyl-6,6,9-trimethyl-6H-benzo[c]chromen-1-ol] | 1.8 µM | 5.6 µM
CCCCc1cc(O)c2c(c1)OC(C)(C)c1ccc(C)cc1-2 [CBN-C4, 3-butyl-6,6,9-trimethyl-6H-benzo[c]chromen-1-ol] | 1.1 µM | 2.1 µM
CCCCCCc1cc(O)c2c(c1)OC(C)(C)c1ccc(C)cc1-2 [CBN-C6, 3-hexyl-6,6,9-trimethyl-6H-benzo[c]chromen-1-ol] | 0.9 µM | 2 µM
CCCCCCCc1cc(O)c2c(c1)OC(C)(C)c1ccc(C)cc1-2 [CBN-C7, 3-heptyl-6,6,9-trimethyl-6H-benzo[c]chromen-1-ol] | 2 µM | 3.8 µM
CCCCCc1cc(OC(C)=O)c2c(c1)OC(C)(C)c1ccc(C)cc1-2 [CBN-OAc, 1-acetoxy-6,6,9-trimethyl-3-pentyl-benzo[c]chromene] | 1.3 µM | 1.9 µM

SMILES | EC50 (HT22 cells [1]) | EC50 (HT22 cells [2])
CCCCCc1cc(OC)c2c(c1)OC(C)(C)c1ccc(C)cc1-2 [CBN-OMe, 1-methoxy-6,6,9-trimethyl-3-pentyl-benzo[c]chromene] | > 10 µM | > 10 µM
CCCCCc1cc2c(c(O)c1C(=O)O)-c1cc(C)ccc1C(C)(C)O2 [CBNA, 1-hydroxy-6,6,9-trimethyl-3-pentyl-benzo[c]chromene-2-carboxylic acid] | > 10 µM | > 10 µM
C=C(C)c1ccc(C)cc1-c1c(O)cc(CCCCC)cc1O [CBND, 2,6-dihydroxy-4-pentyl-2′-isopropenyl-5′-methyl-1,1′-biphenyl] | 7.7 µM | 15.4 µM
CCCc1cc(OC(C)=O)c2c(c1)OC(C)(C)c1ccc(C)cc1-2 [CBNV-OAc, 6,6,9-trimethyl-3-propyl-6H-benzo[c]chromen-1-yl acetate] | 1.6 µM | 4 µM
CCCCCc1cc2c3c(c1)OC(C)(C)C1CCC(C)(CC31)O2 (centres unmarked) [CBT, 1,5,5-trimethyl-9-pentyl-6,15-dioxa-tetracyclo[9.3.1.0^4,13.0^7,12]-pentadeca-7(12),8,10-triene] | > 10 µM | > 10 µM
CCCCCc1cc(O)c2c(c1)OC1(C)CCC(=C(C)C)C2C1 (centres unmarked) [D4(8)-iso-THC, 3,4,5,6-tetrahydro-2-methyl-5-(1-methylethylidene)-9-pentyl-2,6-methano-2H-1-benzoxocin-7-ol] | 0.34 µM | 1.5 µM
CCCCCc1cc(O)c2c(c1)OC(C)(C)C1=C2CC(C)CC1 (centres unmarked) [D6a,10a-THC, 6,6,9-trimethyl-3-pentyl-7,8,9,10-tetrahydro-6H-benzo[c]chromen-1-ol] | 0.7 µM | 1.8 µM
C=C(C)C1CCC2(C)CC1c1c(O)cc(CCCCC)cc1O2 (centres unmarked) [D8(9)-iso-THC, 3,4,5,6-tetrahydro-2-methyl-5-(1-methylethenyl)-9-pentyl-2,6-methano-2H-1-benzoxocin-7-ol] | 0.33 µM | 2.1 µM
CCCCCc1cc(O)c2c(c1)O[C@@H]1CCC(C)=C[C@]21C(C)C [D8(9)-iso-THCBF, (5aR,9aR)-9a-isopropyl-8-methyl-3-pentyl-5a,6,7,9a-tetra-hydrodibenzo[b,d]furan-1-ol] | 1.4 µM | 5.1 µM
CCCCCc1cc(O)c2c(c1)OC(C)(C)C1CC=C(C)CC21 (centres unmarked) [D8-THC, 6,6,9-trimethyl-3-pentyl-6a,7,10,10a-tetrahydro-6H-benzo[c]chromen-1-ol] | 0.8 µM | 2.6 µM
CCCCCc1cc(O)c2c(c1)OC(C)(C)C1CCC(C)=CC21 (centres unmarked) [D9-THC, 6,6,9-trimethyl-3-pentyl-6a,7,8,10a-tetrahydro-6H-benzo[c]chromen-1-ol] | 4.1 µM | 9.4 µM
CCCCCc1cc(O)c2c(c1)OC(C)(C)C1CCC(C)C=C21 (centres unmarked) [D10-THC, 6,6,9-trimethyl-3-pentyl-6a,7,8,9-tetrahydro-6H-benzo[c]chromen-1-ol] | 0.13 µM | 0.62 µM
CCCCCc1cc(O)c([C@H]2C=C(C)CC[C@@H]2C(C)C)c(O)c1 [H2CBD, 2-[(1R,6R)-6-Isopropyl-3-methylcyclohex-2-en-1-yl]-5-pentylbenzene-1,3-diol] | 1.1 µM | 4.8 µM
CCCCCc1cc(O)c2c(c1)O[C@H]1[C@@H]2[C@H](C(C)C)CC[C@]1(C)O [H2CBE, (5aS,6S,9S,9aR)-9-isopropyl-6-methyl-3-pentyl-5a,6,7,8,9,9a-hexahydrodi-benzo[b,d]furan-1,6-diol] | 3.5 µM | 9.2 µM
CCCCCc1cc(O)c(-c2cc(C)ccc2C(C)C)c(O)c1 [H2CBND, 2,6-dihydroxy-4-pentyl-2′-isopropyl-5′-methyl-1,1′-biphenyl] | 2.4 µM | 5.7 µM
CCCCCc1cc(O)c([C@H]2CC(C)CC[C@@H]2C(C)C)c(O)c1 (stereo partly drawn) [H4CBD, 2-[(1S,6R)-6-Isopropyl-3-methylcyclohexyl]-5-pentylbenzene-1,3-diol] | 0.4 µM | 0.3 µM
CCCCCc1cc(O)c(CCC(C)CCCC(C)C)c(O)c1 (centres unmarked) [H4CBG, 2-(3,7-dimethyloctyl)-5-pentylbenzene-1,3-diol] | 0.4 µM | 0.7 µM
CCCCCc1cc(O)c2c(c1)OC(C)(C)C1CCC(C)CC21 (centres unmarked) [HHC, 6,6,9-trimethyl-3-pentyl-6a,7,8,9,10,10a-hexahydro-6H-benzo[c]chromen-1-ol] | 0.3 µM | 0.5 µM
CCCCCc1cc2c(c(O)c1C(=O)O)[C@@H]1C=C(C)CC[C@H]1C(C)(C)O2 [THCA, (6aR,10aR)-1-Hydroxy-6,6,9-trimethyl-3-pentyl-6a,7,8,10a-tetrahydro-6H-benzo[c]chromene-2-carboxylic acid] | > 10 µM | > 10 µM
CCCc1cc(O)c2c(c1)OC(C)(C)C1CCC(C)=CC21 (centres unmarked) [THCV, 6,6,9-Trimethyl-3-propyl-6a,7,8,10a-tetrahydro-6H-benzo[c]chromen-1-ol] | 0.78 µM | 3.4 µM
